Results from ChEMBL document CHEMBL6109155, “Discovery of Phenylacylpiperidine as Novel sEH Inhibitors through Scaffold Hopping of Natural Stilbene” (J Med Chem, 2025).

Experiments:
[1] = system: Mus musculus; assay: Anti-inflammatory activity in BALB/c mouse model of carrageenan-induced paw edema assessed as increase in ratio of 14,15-EET to DHET plasma levels at 10 mg/kg, po measured after 6 hrs relative to control; assay type: functional
[2] = target: Cytochrome P450 2C9 (Homo sapiens, UniProt P11712); assay: Inhibition of CYP2C9 in human liver microsomes preincubated for 10 mins followed by NADPH addition measured after 3.5 mins by LC-MS/MS analysis; assay type: ADME, Microsome
Chain of Cytochrome P450 2C9 (P11712 whole entry): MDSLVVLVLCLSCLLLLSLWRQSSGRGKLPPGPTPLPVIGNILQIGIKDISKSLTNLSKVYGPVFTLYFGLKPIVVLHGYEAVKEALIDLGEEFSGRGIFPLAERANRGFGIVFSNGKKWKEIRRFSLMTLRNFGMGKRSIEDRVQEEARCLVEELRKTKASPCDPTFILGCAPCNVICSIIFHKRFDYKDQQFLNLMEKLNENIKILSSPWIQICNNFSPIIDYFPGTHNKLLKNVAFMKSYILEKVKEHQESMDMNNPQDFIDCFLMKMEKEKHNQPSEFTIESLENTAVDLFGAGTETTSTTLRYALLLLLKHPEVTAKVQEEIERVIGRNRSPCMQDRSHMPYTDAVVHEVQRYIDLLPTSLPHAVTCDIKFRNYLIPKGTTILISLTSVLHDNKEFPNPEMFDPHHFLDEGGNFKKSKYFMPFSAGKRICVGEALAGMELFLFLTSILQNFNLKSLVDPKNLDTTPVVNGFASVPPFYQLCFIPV

- IC50 [2]: 48.2 µM
SMILES: COc1cc(CC(=O)N2CCC(NC(=O)NCc3ccc(OC(F)(F)F)cc3)CC2)cc(OC)c1
- Activity [1]: 677%
